Where two headings read alike, the source gives them in different places. Peptide text beside a SMILES is read from it.
Tests used:
[1] = target: T1, ACE (Homo sapiens, UniProt P12821); assay: Reported IC50 value of YP for ACE; type: biochemical; conditions: corresponds to 720 μM; read-out: IC50 value of YP for ACE, corresponding mass concentration (converted)
[2] = target: T1, ACE; conditions: reported value; read-out: IC50 value of YP for ACE; cited from earlier work

T1 sequence (P12821 30-1306, species assumed): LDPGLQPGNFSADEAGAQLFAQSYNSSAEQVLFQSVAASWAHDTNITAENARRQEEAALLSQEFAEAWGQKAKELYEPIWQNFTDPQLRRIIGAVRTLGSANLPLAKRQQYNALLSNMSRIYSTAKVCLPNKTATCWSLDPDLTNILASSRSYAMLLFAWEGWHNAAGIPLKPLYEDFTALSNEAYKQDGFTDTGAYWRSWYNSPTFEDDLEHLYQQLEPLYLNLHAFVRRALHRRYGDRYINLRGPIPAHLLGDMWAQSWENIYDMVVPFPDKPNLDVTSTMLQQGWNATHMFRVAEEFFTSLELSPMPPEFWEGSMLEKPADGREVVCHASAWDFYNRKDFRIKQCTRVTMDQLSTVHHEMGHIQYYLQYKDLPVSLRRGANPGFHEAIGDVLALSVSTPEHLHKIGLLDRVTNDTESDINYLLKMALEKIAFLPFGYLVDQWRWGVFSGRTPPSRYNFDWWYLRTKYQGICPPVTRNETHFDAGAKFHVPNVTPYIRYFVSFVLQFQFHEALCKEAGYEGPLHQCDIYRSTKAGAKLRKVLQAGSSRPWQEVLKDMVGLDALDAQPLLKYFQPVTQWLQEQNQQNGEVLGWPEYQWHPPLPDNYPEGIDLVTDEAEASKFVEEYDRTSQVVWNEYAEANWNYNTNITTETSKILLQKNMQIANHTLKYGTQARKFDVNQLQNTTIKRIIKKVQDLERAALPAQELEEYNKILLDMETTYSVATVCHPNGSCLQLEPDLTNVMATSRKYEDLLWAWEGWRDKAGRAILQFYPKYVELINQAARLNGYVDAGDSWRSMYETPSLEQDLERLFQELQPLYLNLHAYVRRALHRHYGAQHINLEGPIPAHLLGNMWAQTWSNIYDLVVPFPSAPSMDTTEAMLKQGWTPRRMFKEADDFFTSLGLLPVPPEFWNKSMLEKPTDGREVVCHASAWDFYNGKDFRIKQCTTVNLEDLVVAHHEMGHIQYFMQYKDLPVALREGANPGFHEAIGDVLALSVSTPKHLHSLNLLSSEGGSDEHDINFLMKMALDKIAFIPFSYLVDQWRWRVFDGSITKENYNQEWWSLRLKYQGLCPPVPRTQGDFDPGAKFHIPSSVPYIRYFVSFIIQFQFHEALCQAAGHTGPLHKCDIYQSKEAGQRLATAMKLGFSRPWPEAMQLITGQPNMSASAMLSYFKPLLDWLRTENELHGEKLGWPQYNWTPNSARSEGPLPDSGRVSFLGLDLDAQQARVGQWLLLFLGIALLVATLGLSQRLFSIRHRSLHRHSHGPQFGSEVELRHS

IC50 [1]: 719 µM
SMILES: N[C@@H](Cc1ccc(O)cc1)C(=O)N1CCC[C@H]1C(=O)O [YP, Tyr-Pro] (H-Tyr-Pro-OH)
IC50 [2]: 720 µM

— patent publication US10780127B2, “Method for producing fermented milk having high angiotensin converting enzyme inhibitory activity and method for producing physiologically active peptide” (NATIONAL UNIVERSITY CORPORATION TOTTORI UNIVERSITY, priority 2016, dated 2020)
